This is an account of results in patent US10351522B2, “Sulfonamide derivative and pharmaceutically acceptable acid addition salt thereof” (UNIVERSITY OF TSUKUBA, priority 2015, dated 2019).

Structures are written as SMILES. Read-outs that look alike come from different tables or passages of the source. Some results are limits rather than exact numbers.

The target in one assay is T1, human OX1R (Homo sapiens, UniProt O43613).
T1 construct: expressed in transfected cells; host or cells: CHO (Chinese hamster ovary) cells, line CHOOX1R, co-expressing NFAT-luciferase
T1 sequence (O43613 1-425): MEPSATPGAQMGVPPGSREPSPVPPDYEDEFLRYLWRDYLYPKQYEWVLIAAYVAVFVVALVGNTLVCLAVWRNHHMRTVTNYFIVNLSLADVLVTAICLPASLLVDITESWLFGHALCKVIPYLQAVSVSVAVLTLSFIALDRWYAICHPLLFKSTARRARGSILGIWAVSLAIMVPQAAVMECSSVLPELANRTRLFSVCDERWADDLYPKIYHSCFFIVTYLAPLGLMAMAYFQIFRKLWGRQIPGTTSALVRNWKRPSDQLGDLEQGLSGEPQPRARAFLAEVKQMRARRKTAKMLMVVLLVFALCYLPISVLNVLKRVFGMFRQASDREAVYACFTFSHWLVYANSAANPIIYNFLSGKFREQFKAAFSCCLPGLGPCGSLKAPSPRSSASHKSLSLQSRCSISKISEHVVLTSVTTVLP
As to the kind of experiment: Agonist activity against OX1R: intracellular calcium (Fura-2AM, FDSS7000) in CHOOX1R cells. It counts as cell-based. Particulars: for Emax at 0.1 µM / Emax at 1 µM / Emax at 10 µM: read-out: Response (%) OX1R. As to the method: (§1) Evaluation of Agonist Activity Against OX1R and OX2R
(§2) NAFT-luciferase gene and human OX1R gene were constitutively expressed in CHO cell, which is a cell line derived from Chinese hamster ovary to establish a cell line (CHOOX1R) and NAFT-luciferase gene and human OX2R gene were constitutively expressed in CHO cell to establish a cell line (CHOOX2R). The respective cells were seeded in a 96-well Multiplate at 10,000 cells/well and cultured in a 5% FBS (Thermo Scientific)-added DMEM medium (Sigma-Aldrich) for 48 hr. The medium was removed, an assay buffer (20 mM HEPES (Sigma-Aldrich), Hanks' balanced salt solution (Gibco), 0.1% BSA (Sigma-Aldrich), 2.5 mM probenecid acid (Wako Pure Chemical Industries, Ltd.)) (100 μL) containing 5 μM Fura-2AM (Cayman Chemical) was added, and the cells were incubated for 60 min. The buffer containing Fura-2AM was removed, and an assay buffer (75 μL) was added. An assay buffer (25 μL) containing a test compound was added thereto to start the reaction. Changes in the intracellular calcium ion concentration due to the reaction were measured by measuring the fluorescence intensity ratio by dual wavelength excitation at 340 and 380 nm, by using FDSS7000 (Hamamatsu Photonics K.K.). The test compound was dissolved in DMSO to 10 mM, and diluted with the assay buffer to a final concentration of 10^−7M to 10^−5M (final concentration of DMSO 1%).
(§3) (As used herein, Response in Table 21 to Table 27 is a value obtained by dividing the agonist activity value, when the test compound is evaluated with orexin-A as a full-agonist (maximum value of agonist activity: 100%), at 10 μM, 1.0 μM, 0.1 μM by the agonist activity value of orexin-A.)
Background: A change in cytosolic calcium serves as a functional read-out for many receptors and channels.

For the next assay, the target named is T2, human OX2R (Homo sapiens, UniProt O43614).
T2 construct: expressed in transfected cells; host or cells: CHO (Chinese hamster ovary) cells, line CHOOX2R, co-expressing NFAT-luciferase
T2 sequence (O43614 1-444): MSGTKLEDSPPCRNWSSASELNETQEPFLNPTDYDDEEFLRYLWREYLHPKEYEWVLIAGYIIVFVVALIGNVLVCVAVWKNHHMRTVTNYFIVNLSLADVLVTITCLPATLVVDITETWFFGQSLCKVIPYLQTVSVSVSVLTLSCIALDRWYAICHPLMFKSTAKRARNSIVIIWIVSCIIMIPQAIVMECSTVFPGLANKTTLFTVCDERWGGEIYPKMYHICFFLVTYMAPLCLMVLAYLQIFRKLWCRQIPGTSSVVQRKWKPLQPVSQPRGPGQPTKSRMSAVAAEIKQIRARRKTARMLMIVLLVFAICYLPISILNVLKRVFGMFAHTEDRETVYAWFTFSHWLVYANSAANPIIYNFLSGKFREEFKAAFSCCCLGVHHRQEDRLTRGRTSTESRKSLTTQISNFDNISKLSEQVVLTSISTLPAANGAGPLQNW
Kind of assay: Agonist activity against OX2R: intracellular calcium (Fura-2AM, FDSS7000) in CHOOX2R cells. The conditions noted are these: relative to orexin-A as full agonist (100%). It counts as cell-based. As to the method:
as §1, §2, §3

The mark [1] stands for this setting: 0.1 μM test compound, relative to orexin-A as full agonist (100%).
Setting [2] is: 1.0 μM test compound, relative to orexin-A as full agonist (100%).
Where [3] appears, read: 10 μM test compound, relative to orexin-A as full agonist (100%).
The mark [4] stands for this setting: test compound 0.1 μM, relative to orexin-A as full agonist (100%).
Setting [5] is: test compound 1.0 μM, relative to orexin-A as full agonist (100%).
The mark [6] stands for this setting: test compound 10 μM, relative to orexin-A as full agonist (100%).

As to `COc1ccc(-c2cccc(C(=O)N(C)C)c2)cc1S(=O)(=O)Nc1cccc(NC(=O)Nc2cc(OC)c(OC)c(OC)c2)c1` [Example 54], the “Response (%) OX1R” value at human OX1R (setting [1]) is below 5%; on human OX1R (setting [2]), below 5%; on human OX1R (setting [3]), 10%. Also, the figures for the “Response (%) OX2R” value at human OX2R (0.1 μM test compound), on human OX2R (1.0 μM test compound) and at human OX2R (10 μM test compound) were 91%, 71% and 61%, respectively.
For the compound `COc1cccc(S(=O)(=O)Nc2cccc(NS(=O)(=O)c3cc(-c4cccc(C(=O)N(C)C)c4)ccc3OC)c2)c1` [Example 85, 4′-methoxy-3′-(N-(3-(3-methoxyphenylsulfonamido)phenyl)sulfamoyl)-N,N-dimethyl-[1,1′-biphenyl]-3-carboxamide], the Emax at 0.1 µM at human OX1R (setting [4]) is below 5%. In addition, on human OX1R (setting [5]), the Emax at 1 µM was below 5%. Moreover, the Emax at 10 µM on human OX1R (setting [6]) was below 5%. For the same compound, the “Response (%) OX2R” value at human OX2R (test compound 0.1 μM) is recorded as below 5%; on human OX2R (test compound 1.0 μM), below 5%; at human OX2R (test compound 10 μM) it was 12%.
`COc1ccc(-c2cccc(C(=O)N(C)C)c2)cc1S(=O)(=O)Nc1cccc(N2CCN(C(=O)c3cccc(C)c3)C2)c1` [Example 93, 4′-methoxy-N,N-dimethyl-3′-(N-(3-(3-(3-methylbenzoyl)imidazolidin-1-yl)phenyl)sulfamoyl)-[1,1′-biphenyl]-3-carboxamide]: at human OX1R (setting [4]), the Emax at 0.1 µM turned out to be 10%. For the same compound, the Emax at 1 µM on human OX1R (setting [5]) stood at 9%. Besides, the Emax at 10 µM on human OX1R (setting [6]) worked out at 20%. The “Response (%) OX2R” value worked out at 16% on human OX2R (test compound 0.1 μM), 77% on human OX2R (test compound 1.0 μM) and 85% at human OX2R (test compound 10 μM).
With `COc1ccc(C(=O)Nc2cccc(N(C)C)c2)cc1S(=O)(=O)Nc1cccc(NC(=O)Nc2cccc(N(C)C)c2)c1` [Example 106], the entries for the “Response (%) OX1R” value on human OX1R (setting [4]), on human OX1R (setting [5]) and at human OX1R (setting [6]) were 8%, 7% and 8%, respectively. The “Response (%) OX2R” value at human OX2R (test compound 0.1 μM) is listed as 9%; on human OX2R (test compound 1.0 μM) it was 7%; on human OX2R (test compound 10 μM), 46%.
Consider `COc1ccc(-c2cccc(C(=O)N(C)C)c2)cc1S(=O)(=O)Nc1cccc(NC(=O)c2ccccc2N(C)C)c1` [Example 6], for which the “Response (%) OX1R” value is reported as 7% at human OX1R (setting [1]), 7% at human OX1R (setting [2]) and 6% on human OX1R (setting [3]). Besides, the “Response (%) OX2R” value on human OX2R (0.1 μM test compound) is 9%; on human OX2R (1.0 μM test compound), 17%; at human OX2R (10 μM test compound), 32%.
With `COc1ccc(-c2cccc(C(=O)N(C)C)c2)cc1S(=O)(=O)Nc1cccc(N=Nc2ccc(O)cc2NC(=O)OC(C)(C)C)c1` [Example 98], the results for the “Response (%) OX1R” value at human OX1R (setting [4]), on human OX1R (setting [5]) and on human OX1R (setting [6]) were 8%, 8% and 9%, respectively. In addition, the entries for the “Response (%) OX2R” value at human OX2R (test compound 0.1 μM), on human OX2R (test compound 1.0 μM) and at human OX2R (test compound 10 μM) were 13%, 11% and 67%, respectively.
As for `COc1ccc(-c2cccc(C(=O)N(C)C)c2)cc1S(=O)(=O)Nc1cccc(NC(=O)c2cccc3ccccc23)c1` [Example 10], the “Response (%) OX1R” value worked out at 5% at human OX1R (setting [1]), 6% on human OX1R (setting [2]) and 11% on human OX1R (setting [3]). The “Response (%) OX2R” value at human OX2R (0.1 μM test compound) is 14%; on human OX2R (1.0 μM test compound) it was 80%; on human OX2R (10 μM test compound) it was 98%.
For `COc1ccc(-c2cccc(C(=O)N(C)C)c2)cc1S(=O)(=O)Nc1cccc(Nc2ccc3c(c2)OCO3)c1` [Example 36], the “Response (%) OX1R” value is listed as below 5% on human OX1R (setting [1]), below 5% on human OX1R (setting [2]) and 10% on human OX1R (setting [3]). Besides, the “Response (%) OX2R” value on human OX2R (0.1 μM test compound) is below 5%; at human OX2R (1.0 μM test compound), 63%; at human OX2R (10 μM test compound), 93%.
Regarding `COc1ccc(-c2cccc(C(=O)N(C)C)c2)cc1S(=O)(=O)Nc1cccc(NC(=O)Nc2cccc(C)c2)c1` [Example 38], the “Response (%) OX1R” value at human OX1R (setting [1]), on human OX1R (setting [2]) and at human OX1R (setting [3]) was below 5% throughout. Also, the entries for the “Response (%) OX2R” value at human OX2R (0.1 μM test compound), on human OX2R (1.0 μM test compound) and on human OX2R (10 μM test compound) were 68%, 82% and 71%, respectively.
With `COc1ccc(-c2cccc(C(=O)N(C)C)c2)cc1S(=O)(=O)Nc1cccc(N(C)C(=O)N(C)c2cccc(N(C)C)c2)c1` [Example 126, 3′-(N-(3-(3-(3-(dimethylamino)phenyl)-1,3-dimethylureido)phenyl)sulfamoyl)-4′-methoxy-N,N-dimethyl-[1,1′-biphenyl]-3-carboxamide], the Emax at 0.1 µM on human OX1R worked out at 5%. The Emax at 1 µM on human OX1R was 5%. For the same compound, at human OX1R, the Emax at 10 µM is below 5%. In addition, the entries for the “Response (%) OX2R” value on human OX2R (test compound 0.1 μM), at human OX2R (test compound 1.0 μM) and on human OX2R (test compound 10 μM) were 7%, 37% and 85%, respectively.
As for `COc1ccc(CNc2cccc(NS(=O)(=O)c3cc(-c4cccc(C(=O)N(C)C)c4)ccc3OC)c2)cc1` [Example 22], the “Response (%) OX1R” value on human OX1R (setting [1]) is below 5%; at human OX1R (setting [2]), 47%; on human OX1R (setting [3]) it was 82%. For the same compound, the “Response (%) OX2R” value on human OX2R (0.1 μM test compound) was determined as 57%; on human OX2R (1.0 μM test compound), 61%; at human OX2R (10 μM test compound) it was 48%.
Turning to `COc1ccc(-c2cccc(C(=O)N(C)C)c2)cc1S(=O)(=O)Nc1cccc(NC(=O)Nc2ccc(N(C)C)cc2)c1` [Example 39], the “Response (%) OX1R” value on human OX1R (setting [1]) is on record as below 5%; at human OX1R (setting [2]) it was below 5%; at human OX1R (setting [3]), 32%. The “Response (%) OX2R” value at human OX2R (0.1 μM test compound) is 73%; on human OX2R (1.0 μM test compound), 59%; at human OX2R (10 μM test compound), 53%.
With `COc1ccc(-c2cccc(C(=O)N(C)C)c2)cc1S(=O)(=O)Nc1cccc(Nc2ccccc2)c1` [Example 30, 4′-methoxy-N,N-dimethyl-3′-(N-(3-(phenylamino)phenyl)sulfamoyl)-[1,1′-biphenyl]-3-carboxamide], the Emax at 0.1 µM at human OX1R was below 5%. Besides, the Emax at 1 µM on human OX1R is below 5%. The Emax at 10 µM on human OX1R is below 5%. The “Response (%) OX2R” value on human OX2R (0.1 μM test compound) is listed as below 5%; on human OX2R (1.0 μM test compound), below 5%; on human OX2R (10 μM test compound), 39%.
For `COc1ccc(-c2cccc(C(=O)N(C)C)c2)cc1S(=O)(=O)Nc1cccc(Nc2ccc(C(=O)N(C)C)cc2)c1` [Example 34], the “Response (%) OX1R” value at human OX1R (setting [1]), at human OX1R (setting [2]) and on human OX1R (setting [3]) was below 5% each time. The entries for the “Response (%) OX2R” value on human OX2R (0.1 μM test compound), on human OX2R (1.0 μM test compound) and at human OX2R (10 μM test compound) were below 5%, 52% and 95%, respectively.
For the compound `COc1ccc(-c2cccc(C(=O)N(C)C)c2)cc1S(=O)(=O)Nc1cccc(NC(=O)Nc2cccs2)c1` [Example 67], the figures for the “Response (%) OX1R” value on human OX1R (setting [1]), on human OX1R (setting [2]) and on human OX1R (setting [3]) were 6%, 8% and 9%, respectively. Further, the “Response (%) OX2R” value on human OX2R (0.1 μM test compound) is recorded as 15%; on human OX2R (1.0 μM test compound) it was 83%; at human OX2R (10 μM test compound) it was 103%.
